Laboratory results from PubChem BioAssay (NCI).
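Exposure lasted 48 hours, with cells grown in 96-well plates and compounds tested at five concentrations. TGI is the concentration that stops growth completely.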

How the values were obtained:
Assay in all cases: DTP human tumour cell line panel, 48 h
U251 CNS = system: U251 CNS
TK-10 renal = system: TK-10 renal
SW-620 colon = system: SW-620 colon
UO-31 renal = system: UO-31 renal
OVCAR-8 ovarian = system: OVCAR-8 ovarian
BT-549 breast = system: BT-549 breast
UACC-62 melanoma = system: UACC-62 melanoma
KM12 colon = system: KM12 colon
SK-MEL-28 melanoma = system: SK-MEL-28 melanoma
EKVX NSCLC = system: EKVX NSCLC
786-0 renal = system: 786-0 renal
T-47D breast = system: T-47D breast
COLO 205 colon = system: COLO 205 colon
DU-145 prostate = system: DU-145 prostate
UACC-257 melanoma = system: UACC-257 melanoma
SF-295 CNS = system: SF-295 CNS
LOX IMVI melanoma = system: LOX IMVI melanoma
M14 melanoma = system: M14 melanoma
RPMI-8226 leukemia = system: RPMI-8226 leukemia
RXF 393 renal = system: RXF 393 renal

Row | SMILES | TGI (U251 CNS) [µM] | TGI (TK-10 renal) [µM] | TGI (SW-620 colon) [µM] | TGI (UO-31 renal) [µM] | TGI (OVCAR-8 ovarian) [µM] | TGI (BT-549 breast) [µM] | TGI (UACC-62 melanoma) [µM] | TGI (KM12 colon) [µM] | TGI (SK-MEL-28 melanoma) [µM] | TGI (EKVX NSCLC) [µM] | TGI (786-0 renal) [µM] | TGI (T-47D breast) [µM] | TGI (COLO 205 colon) [µM] | TGI (DU-145 prostate) [µM] | TGI (UACC-257 melanoma) [µM] | TGI (SF-295 CNS) [µM] | TGI (LOX IMVI melanoma) [µM] | TGI (M14 melanoma) [µM] | TGI (RPMI-8226 leukemia) [µM] | TGI (RXF 393 renal) [µM]
1 | OC(Cc1ccc2ccccc2n1)(C(F)(F)Cl)C(F)(F)Cl | > 10 | > 10 | > 10 | > 10 | > 10 | > 10 | > 10 | > 10 | > 10 | > 10 | > 10 | > 10 | > 10 | > 10 | > 10 | > 10 | > 10 | > 10 |  | 
2 | CCOC(=O)CCC(NC(=O)C(N)c1ccc([N+](=O)[O-])cc1)C(=O)NC(CCC(=O)OCC)C(=O)OCC (configuration not stated) | > 100 | > 100 | > 100 | > 100 | > 100 | > 100 | > 100 | > 100 | > 100 | > 100 | > 100 | > 100 | > 100 |  | > 100 |  |  | > 100 | > 100 | 
3 | COC(=O)n1c(C)c(C=O)c2ccc(OC)cc21 |  | 67.6 |  | > 100 | > 100 | 73.2 | 57.1 | 89.9 |  | > 100 | > 100 | > 100 | > 100 | > 100 | > 100 | 69.6 | 84.5 | > 100 |  | > 100
4 | C[C@@H]1CCC2C(C)(C)C(/C=C\C=O)C3(C)OC213 (some centres not stated) | > 100 | > 100 | > 100 | > 100 | 44.5 | > 100 | > 100 | > 100 | > 100 | > 100 | > 100 |  | 55.4 | > 100 | > 100 | > 100 |  | > 100 | 84.5 | > 100
5 | COc1cc(C(C[N+](=O)[O-])SC(C)=O)ccc1OCc1ccccc1 (configuration not stated) | 22.7 | 14.7 | 10.6 | 10.3 | 13.6 |  | 8.68 | 14 | 6.79 | 37.9 | 3.74 | 54.5 | 13 | 27.1 | 10.5 | 10.3 | 3.35 | 11.2 | 4.61 | 3.18
6 | CCN(CC)c1ccc(C2Nc3ccc4ccccc4c3C3=C2C(=O)CCC3)cc1 (configuration not stated) | 33 |  | > 100 | > 100 | 38.3 | > 100 | > 100 | > 100 | > 100 | > 100 | 76.8 | > 100 | > 100 | 62.8 | > 100 | > 100 |  | > 100 | > 100 | 59.1
7 | CSc1nn(C)cc2nc(C)nc1-2 | > 100 | > 100 | > 100 | > 100 | > 100 | > 100 | > 100 | > 100 | > 100 | > 100 | > 100 | > 100 | > 100 | > 100 | > 100 | > 100 |  | > 100 | > 100 | > 100
8 | [N-]=[N+]=Nc1ccc2c(c1)Sc1ccccc1N2CCCCN1CCN(Cc2ccc(C(=O)c3ccc(CSCC(N)C(=O)O)cc3)cc2)CC1 (configuration not stated) | 26.4 | > 100 | 4.79 | > 100 |  | 40.1 | 24.4 | 7.91 | 3.8 | > 100 | 24.4 |  | 40.1 | 67.7 | 69.2 | 44.5 | 24.9 |  | > 100 | > 100
9 | N/C(=N\N=C\c1cc(I)cc(I)c1O)NO | > 100 | > 100 | > 100 |  | > 100 | > 100 | 95.5 | > 100 | > 100 | > 100 | > 100 | > 100 | > 100 | > 100 | > 100 | > 100 | > 100 | 44.2 |  | > 100
10 | CCOC(=O)[C@@H]1ON2O[C@H](OC3CCCCC3c3ccccc3)C[C@H]3OC(=O)[C@@H]1C32 (some centres not stated) | > 100 | > 100 | > 100 | > 100 | > 100 |  | > 100 | > 100 |  | > 100 | > 100 | > 100 | > 100 | > 100 | > 100 | > 100 | > 100 | > 100 | > 100 | > 100
11 | COc1cc(C2c3cc4c(cc3OC(NCCc3ccccc3)C2C)OCO4)cc(OC)c1OC (configuration not stated) | 14.7 | > 100 | > 100 | 22.8 | > 100 | 22.7 | 35.3 | 4.12 | > 100 | > 94 | 18.1 | 66.8 | 0.605 | > 100 | > 85.5 | 1.98 | 15.6 | > 47.6 | 14.7 | 
12 | c1ccc(-c2c3c(nc4c2CC[C@H]4NC2=NCCN2)[C@@H](NC2=NCCN2)CC3)cc1 | 23.6 | > 100 | > 100 | > 100 | > 100 | > 100 | > 100 | > 100 | > 100 | > 100 | > 100 | > 100 | > 100 | > 100 | > 100 | > 100 | > 100 | > 100 |  | > 100
13 | Cc1cc(S(=O)(=O)NC2=NCCN2Cc2ccccc2)c(S)cc1Cl | > 100 | > 100 | > 100 |  | > 100 | > 100 | > 100 | > 100 | > 100 | > 100 | > 100 |  | > 100 | > 100 | > 100 | > 100 | > 100 | > 100 | > 100 | 
